Experimental data: patent US6441177B1 (Hoffmann-La Roche Inc., priority 1995, dated 2002)
Converted amounts (≈) assume the structure as drawn. Where two headings read alike, the source gives them in different places.

Tests used:
[1] = target: T1, human liver microsomal 2,3-oxidosqualene-lanosterol cyclase (OSC) (Homo sapiens, UniProt P48449); assay: Inhibition of human liver microsomal 2,3-oxidosqualene-lanosterol cyclase (OSC); assay type: biochemical; conditions: human liver microsomes; for IC50: concentration reducing conversion of MOS into lanosterol to 50% of control; for inhibition at 0.1 µM: constant test substance concentration of 100 nM, 1 hour at 37° C., against controls
T1 construct: Liver microsomes from a healthy volunteer were prepared in sodium phosphate buffer (pH 7.4); from tissue; host or cells: human liver microsomes from a healthy volunteer
T1 sequence (P48449 1-732): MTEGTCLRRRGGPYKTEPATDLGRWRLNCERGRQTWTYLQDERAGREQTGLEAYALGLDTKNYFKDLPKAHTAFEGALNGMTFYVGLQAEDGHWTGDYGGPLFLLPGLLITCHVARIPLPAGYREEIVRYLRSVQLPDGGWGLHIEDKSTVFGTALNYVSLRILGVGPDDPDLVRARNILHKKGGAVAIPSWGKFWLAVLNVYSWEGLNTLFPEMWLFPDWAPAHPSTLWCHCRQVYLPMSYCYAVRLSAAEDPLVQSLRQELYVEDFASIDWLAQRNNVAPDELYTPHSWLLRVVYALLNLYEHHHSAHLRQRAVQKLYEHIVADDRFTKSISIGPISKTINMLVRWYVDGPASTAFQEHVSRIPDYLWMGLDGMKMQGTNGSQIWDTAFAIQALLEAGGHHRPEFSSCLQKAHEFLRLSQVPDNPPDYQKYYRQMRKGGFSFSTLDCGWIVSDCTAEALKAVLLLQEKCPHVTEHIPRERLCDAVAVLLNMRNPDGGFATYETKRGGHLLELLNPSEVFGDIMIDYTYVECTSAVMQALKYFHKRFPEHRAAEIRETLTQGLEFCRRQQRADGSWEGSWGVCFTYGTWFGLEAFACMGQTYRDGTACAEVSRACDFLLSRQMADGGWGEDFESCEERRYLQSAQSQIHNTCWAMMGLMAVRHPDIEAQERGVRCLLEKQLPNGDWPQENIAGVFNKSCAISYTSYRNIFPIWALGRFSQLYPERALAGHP
Method: Inhibition of Human Liver Microsomal 2,3-Oxidosqualene-lanosterol Cyclase (OSC)
Liver microsomes from a healthy volunteer were prepared in sodium phosphate buffer (pH 7.4). The OSC activity was measured in the same buffer which also contained 1 mM EDTA and 1 mM dithiothreitol. The microsomes were diluted to 0.8 mg/ml protein in cold phosphate buffer. Dry [^14C]R,S-monooxidosqualene (MOS; 12.8 mCi/mmol) was diluted to 20 nCi/μl with ethanol and mixed with phosphate buffer-1% BSA (Bovine Serum Albumin). A stock solution of 1 mM test substance in DMSO was diluted to the desired concentration with phosphate buffer-1% BSA. 40 μl of microsomes were mixed with 20 μl of the solution of the test substance and the reaction was subsequently started with 20 μl of the [^14C]R,S-MOS solution. The final conditions were: 0.4 mg/ml of microsomal proteins and […] of [^14C]R,S-MOS in phosphate buffer, pH 7.4, containing 0.5% albumin, DMSO <0.1% and ethanol <2%, in a total volume of 80 μl.
After 1 hour at 37° C. the reaction was stopped by the addition of 0.6 ml of 10% KOH-methanol, 0.7 ml of water and 0.1 ml of hexane:ether (1:1, v/v) which contained 25 μg of non-radioactive MOS and 25 μg of lanosterol as the carrier. After shaking 1 ml of hexane:ether (1:1, v/v) was added to each test tube, these were again shaken and then centrifuged. The upper phase was transferred into a glass test tube, the lower phase was again extracted with hexane:ether and combined with the first extract. The entire extract was evaporated to dryness with nitrogen and the residue was suspended in 50 μl of hexane:ether and applied to a silica gel plate. Chromatographic separation was effected in hexane:ether (1:1, v/v) as the eluent. […] After drying radioactive MOS and lanosterol were observed on the silica gel plate. The ratio of MOS to lanosterol was determined from the radioactive bands in order to determine the OSC inhibition.
The test was carried out on the one hand with a constant test substance concentration of 100 nM and the percentage OSC inhibition against controls was calculated. In addition, the test was carried out with different test substance concentrations and subsequently the IC50 value was calculated, i.e. the concentration required to reduce the conversion of MOS into lanosterol to 50% of the control value.

Aspergillus fumigatus = assay: Antifungal activity in vitro, microdilution method; assay type: cell-based; conditions: growth inhibition, incubation at 27° C. for 48 hours, read-out: IC50 (mg/ml) for: A. fumigatus after: 48 hours
Method: (§1) Antifungal Activity In Vitro The compounds were tested for antifungal activity against Candida albicans, Cryptococcus neoformans and Aspergillus fumigatus using a microdilution method on microtitre plates (96 wells per plate). Yeast supplemented with 1% glucose and 0.25% di-potassium phosphate was used for the three fungal strains. The fungal cells were inoculated at 3×10^4 CFU (Colony Forming Unit) in […] of medium per well. The medium contained increasing concentrations of test substance. After incubation at 27° C. for 24 or 48 hours the turbidity in each well was measured by a microtitre plate reader. The growth inhibition was calculated in comparison to a control (without test substance). The IC50 value given in the following Table is the concentration of test substance at which the growth is inhibited by 50%.

Cryptococcus neoformans = assay: Antifungal activity in vitro, microdilution method; assay type: cell-based; conditions: growth inhibition, incubation at 27° C. for 48 hours, read-out: IC50 (mg/ml) for: C. neoformans after: 48 hours
Method: as §1

Candida albicans = assay: Antifungal activity in vitro, microdilution method; assay type: cell-based; conditions: growth inhibition
Method: as §1

[2] = incubation at 27° C. for 24 hrs., read-out: IC50 (mg/ml) for: C. albicans after: 24 hrs.
[3] = incubation at 27° C. for 48 hrs., read-out: IC50 (mg/ml) for: C. albicans after: 48 hrs.

| IC50 [1] | inhibition at 0.1 µM [1] | SMILES | other results |
| --- | --- | --- | --- |
| 23.7 nM | 78% | C=CCN(C)C/C=C/COc1ccc(C(O)(C=C)c2ccc(Br)cc2)cc1 (racemic) [Example 8b, (E)-(RS)-1-[4-[4-(allyl-methyl-amino)-but-2-enyloxy]-phenyl]-1-(4-bromo-phenyl)-prop-2-en-1-ol] | – |
| 3.6 nM | 85% | CN(C[C@@H]1C[C@H]1COc1ccc(C(=O)c2ccc(Br)cc2)cc1F)C1CC1 (racemic) [Example 32a, (1RS,2RS)-(4-bromo-phenyl)-[4-[2-[(cyclopropyl-methyl-amino)-methyl]-cyclopropylmethoxy]-3-fluoro-phenyl]-methanone] | – |
| 12.3 nM | 87% | C=CCN(C)C/C=C/COc1ccc(C(C)(O)CCC=C(C)C)cc1 (racemic) [Example 39a, (E)-(RS)-2-[4-[4-(allyl-methyl-amino)-but-2-enyloxy]-phenyl]-6-methyl-hept-5-en-2-ol] | – |
| 13.5 nM | 90% | C=CCN(C)C/C=C/COc1ccc(C(=C)c2ccc(Br)cc2)cc1 [Example 8f, (E)-allyl-[4-[4-[1-(4-bromo-phenyl)-vinyl]-phenoxy]-but-2-enyl]-methyl-amine] | – |
| – | 82% | CN(CCCCCCOc1ccccc1C(=O)c1ccc(Br)cc1)C1CC1 [Example 13a, [6-[6-(cyclopropyl-methyl-amino)-hexyloxy]-phenyl]-(4-bromo-phenyl)-methanone] | – |
| 7.9 nM | 93.5% | CN(C/C=C/COc1ccc(C(=O)c2ccc(C#N)cc2)cc1F)C1CC1 [Example 13b, (E)-4-[4-[4-(cyclopropyl-methyl-amino)-but-2-enyloxy]-3-fluoro-benzoyl]-benzonitrile] | – |
| 7.1 nM | 98% | C=CCN(C)CCCCCCOc1ccc(C(=O)c2ccc(Br)cc2)c(N(C)C)c1 [Example 34a, [4-[6-(allyl-methyl-amino)-hexyloxy]-2-dimethylamino-phenyl]-(4-bromo-phenyl)-methanone] | – |

More lines, now with the values behind:

| SMILES | IC50 [1] | inhibition at 0.1 µM [1] | other results |
| --- | --- | --- | --- |
| CN(C[C@@H]1C[C@H]1COc1ccc(C(=O)c2ccc(Br)cc2)cc1)C1CC1 (racemic) [Example 31, (1RS,2RS)-(4-bromo-phenyl)-[4-[2-[(cyclopropyl-methyl-amino)-methyl]-cyclopropylmethoxy]-phenyl]-methanone] | 22 nM | 85% | – |
| C=CCN(C)CCCCCCOc1ccc(C(C)(O)c2ccc(Br)cc2)c(F)c1 (racemic) [Example 38, (RS)-1-[4-[6-(allyl-methyl-amino)-hexyloxy]-2-fluoro-phenyl]-1-(4-bromo-phenyl)-ethanol] | 21 nM | 82% | – |
| C=CCN(C)Cc1ccc(-c2ccc(C(F)c3ccc(Br)cc3)cc2)cc1 (racemic) [Example 48, (RS)-allyl-[4′-[(4-bromo-phenyl)-fluoro-methyl]-biphenyl-4-ylmethyl]-methyl-amine] | – | – | IC50 (Aspergillus fumigatus): 0.018 mg/mL (≈ 42.4 µM); IC50 (Cryptococcus neoformans): 0.00047 mg/mL (≈ 1.11 µM); IC50 (Candida albicans; [2]): < 0.00032 mg/mL; IC50 (Candida albicans; [3]): < 0.00032 mg/mL |
| C=CCN(C)C/C=C/COc1cc(F)c(C(=O)c2ccc(Br)cc2)cc1F [Example 1, (E)-[4-[4-(allyl-methyl-amino)-but-2-enyloxy]-2,5-difluoro-phenyl]-(4-bromo-phenyl)-methanone] | 2.4 nM | 90% | – |
| O=C(c1ccc(Br)cc1)c1ccc(OC/C=C/CN2CCC(O)CC2)cc1 [Example 2l, (E)-(4-bromo-phenyl)-[4-[4-(4-hydroxy-piperidin-1-yl)-but-2-enyloxy]-phenyl]-methanone] | – | 81% | – |
| CN(CCCCCCOc1ccc(C(=O)c2ccc(Br)cc2)c(F)c1)C1CC1 [Example 2p, (4-bromo-phenyl)-[4-[6-(cyclopropyl-methyl-amino)-hexyloxy]-2-fluoro-phenyl]-methanone] | – | 66% | – |
| C=CCN(C)CCCCCCOc1ccc(C(=O)c2ccc(Br)cc2)c(SC)c1 [Example 3, [4-[6-(allyl-methyl-amino)-hexyloxy]-2-methylsulphanyl-phenyl]-(4-bromo-phenyl)-methanone] | 4.9 nM | 92% | – |
| CN(CCCCCCOc1ccc(C(=O)c2ccc(Br)cc2)cc1)CC1CC1 [Example 15, (4-bromo-phenyl)-[4-[6-(cyclopropylmethyl-methyl-amino)-hexyloxy]-phenyl]-methanone] | 32 nM | 83% | – |
| C=CCN(C)C/C=C/COc1ccc(C(=O)/C=C/C=C(C)C)cc1F [Example 25, (E)-1-[4-[(E)-4-(allyl-methyl-amino)-but-2-enyloxy]-3-fluoro-phenyl]-5-methyl-hexa-2,4-dien-1-one] | – | – | IC50 (Aspergillus fumigatus): 0.00082 mg/mL (≈ 2.39 µM); IC50 (Cryptococcus neoformans): 0.001 mg/mL (≈ 2.91 µM); IC50 (Candida albicans; [2]): 0.00032 mg/mL (≈ 0.932 µM); IC50 (Candida albicans; [3]): < 0.00032 mg/mL |
| C=CCN(C)C/C=C/COc1ccc(C(=O)/C=C/C=C(C)C)cc1 [Example 26c, (E)-1-[4-[(E)-4-(allyl-methyl-amino)-but-2-enyloxy]-phenyl]-5-methyl-hexa-2,4-dien-1-one] | – | – | IC50 (Aspergillus fumigatus): 0.0084 mg/mL (≈ 25.8 µM); IC50 (Cryptococcus neoformans): 0.0027 mg/mL (≈ 8.3 µM); IC50 (Candida albicans; [2]): 0.00049 mg/mL (≈ 1.51 µM); IC50 (Candida albicans; [3]): 0.0057 mg/mL (≈ 17.5 µM) |
| C=CCN(C)CCCCCCNc1ccc(C(=O)c2ccc(Br)cc2)cc1F [Example 30, [4-[6-(allyl-methyl-amino)-hexylamino]-3-fluoro-phenyl]-(4-bromo-phenyl)-methanone] | 3.2 nM | 93% | – |
| C=CCN(C)CCCCCCOc1ccc(C(=O)c2ccc(Br)cc2)c(NC)c1 [Example 33, [4-[6-(allyl-methyl-amino)-hexyloxy]-2-methylamino-phenyl]-(4-bromo-phenyl)-methanone] | 2.3 nM | 98% | – |
| C=CCN(C)CCCCCCOc1ccc(C(=O)c2ccc(Br)cc2)c(O)c1 [Example 35, [4-[6-(allyl-methyl-amino)-hexyloxy]-2-hydroxy-phenyl]-(4-bromo-phenyl)-methanone] | – | 97% | – |
| C=CCN(C)CCCCCCOC1CCN(S(=O)(=O)c2ccc(Br)cc2)CC1 [Example 49, allyl-[6-[1-(4-bromo-phenylsulphonyl)-piperidin-4-yloxy]-hexyl]-methyl-amine] | 5.5 nM | 94% | – |
| C=CCN(C)C/C=C/COc1ccc(C(=NOC)c2ccc(Br)cc2)cc1 [Example 51, (E)-and/or (Z)-[4-[(E)-4-(ally-methyl-amino)-but-2-enyloxy]-phenyl]-(4-bromo-phenyl)-methanone-0-methyl-oxime] | 12.8 nM | 87.5% | – |
